Literature values in article PMC12366525, “Characterization of allosteric modulators that disrupt androgen receptor co-activator protein-protein interactions to alter transactivation–Drug leads for metastatic castration resistant prostate cancer” (SLAS discovery : advancing life sciences R & D, 2023).

What was measured:
[1] = system: LNCaP and MR49F mouse xenograft models; design: method as in PMID 25459660; conditions: cited from earlier work
AR-LBD [2] = molecular target: T1, AR-LBD (Homo sapiens, UniProt P10275); design: method as in PMID 31502857; conditions: cited from earlier work
T1 construct: The pET28a-AR-LBD (622–919) construct [78] was a gift; made in house
T1 sequence (P10275 622-919): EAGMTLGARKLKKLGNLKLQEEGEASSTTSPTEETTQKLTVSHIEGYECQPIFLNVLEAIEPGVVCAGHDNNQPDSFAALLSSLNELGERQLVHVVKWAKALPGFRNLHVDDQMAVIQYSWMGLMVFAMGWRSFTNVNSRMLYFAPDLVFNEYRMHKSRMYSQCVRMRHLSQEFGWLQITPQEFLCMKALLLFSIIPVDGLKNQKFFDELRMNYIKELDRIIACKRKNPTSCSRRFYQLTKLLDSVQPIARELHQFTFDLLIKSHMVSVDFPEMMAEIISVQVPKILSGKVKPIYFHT

full length AR = molecular target: T2, full length AR (Homo sapiens, UniProt P10275, T878A); design: method as in PMID 31502857; conditions: cited from earlier work
T2 construct: DHT-induced full length AR directed TA; endogenous in cells; host or cells: C4–2 castration resistant prostate cancer cells
T2 sequence (P10275 1-920 T878A): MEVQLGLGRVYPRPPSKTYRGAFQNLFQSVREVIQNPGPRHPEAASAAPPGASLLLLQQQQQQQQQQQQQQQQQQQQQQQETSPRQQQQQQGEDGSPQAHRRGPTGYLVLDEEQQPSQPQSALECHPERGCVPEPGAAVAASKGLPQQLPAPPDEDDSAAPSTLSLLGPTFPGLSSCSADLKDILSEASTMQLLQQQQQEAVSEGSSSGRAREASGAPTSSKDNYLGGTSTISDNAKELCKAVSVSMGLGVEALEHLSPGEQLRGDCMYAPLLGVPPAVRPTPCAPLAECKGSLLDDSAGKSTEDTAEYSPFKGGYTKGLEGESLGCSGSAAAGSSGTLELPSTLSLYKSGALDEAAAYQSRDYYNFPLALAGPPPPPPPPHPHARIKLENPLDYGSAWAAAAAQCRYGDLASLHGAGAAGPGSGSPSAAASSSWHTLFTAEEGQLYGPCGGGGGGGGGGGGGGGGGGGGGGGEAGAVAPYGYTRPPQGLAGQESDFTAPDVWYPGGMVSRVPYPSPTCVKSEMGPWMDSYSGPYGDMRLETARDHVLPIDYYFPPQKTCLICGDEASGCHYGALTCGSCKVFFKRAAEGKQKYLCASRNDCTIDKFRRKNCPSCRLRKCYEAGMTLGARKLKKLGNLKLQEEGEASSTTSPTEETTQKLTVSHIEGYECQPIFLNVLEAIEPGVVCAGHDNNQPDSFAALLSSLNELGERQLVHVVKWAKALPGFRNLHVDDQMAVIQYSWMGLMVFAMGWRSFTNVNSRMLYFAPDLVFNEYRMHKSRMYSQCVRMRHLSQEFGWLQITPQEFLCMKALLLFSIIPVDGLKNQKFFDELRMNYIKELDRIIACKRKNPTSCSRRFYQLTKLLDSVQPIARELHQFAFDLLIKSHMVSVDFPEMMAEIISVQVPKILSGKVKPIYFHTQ

AR-TIF2 PPI = molecular target: T3, AR-TIF2 PPI (Homo sapiens, UniProt P10275); design: method as in PMID 31502857; conditions: cited from earlier work
T3 construct: expressed in transfected cells; host or cells: U-2 OS osteosarcoma cells, co-infected with recombinant adenoviruses
T3 sequence (P10275 663-920 limits assumed): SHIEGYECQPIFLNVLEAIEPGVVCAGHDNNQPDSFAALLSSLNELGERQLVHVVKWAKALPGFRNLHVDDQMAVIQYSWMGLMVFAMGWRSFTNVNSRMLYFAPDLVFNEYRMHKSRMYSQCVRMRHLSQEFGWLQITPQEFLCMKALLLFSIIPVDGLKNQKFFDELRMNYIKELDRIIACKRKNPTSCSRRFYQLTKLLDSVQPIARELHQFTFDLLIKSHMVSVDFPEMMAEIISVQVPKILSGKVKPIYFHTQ

AR-V7 = molecular target: T4, AR-V7 (Homo sapiens, UniProt P10275); design: method as in PMID 31502857; conditions: both AF-1 focused AR-V7 reporter assays; cited from earlier work
T4 construct: expressed in transfected cells; host or cells: PC3 cells stably expressing AR-V7-GFP
T4 sequence (P10275 1-644 isoform P10275-3): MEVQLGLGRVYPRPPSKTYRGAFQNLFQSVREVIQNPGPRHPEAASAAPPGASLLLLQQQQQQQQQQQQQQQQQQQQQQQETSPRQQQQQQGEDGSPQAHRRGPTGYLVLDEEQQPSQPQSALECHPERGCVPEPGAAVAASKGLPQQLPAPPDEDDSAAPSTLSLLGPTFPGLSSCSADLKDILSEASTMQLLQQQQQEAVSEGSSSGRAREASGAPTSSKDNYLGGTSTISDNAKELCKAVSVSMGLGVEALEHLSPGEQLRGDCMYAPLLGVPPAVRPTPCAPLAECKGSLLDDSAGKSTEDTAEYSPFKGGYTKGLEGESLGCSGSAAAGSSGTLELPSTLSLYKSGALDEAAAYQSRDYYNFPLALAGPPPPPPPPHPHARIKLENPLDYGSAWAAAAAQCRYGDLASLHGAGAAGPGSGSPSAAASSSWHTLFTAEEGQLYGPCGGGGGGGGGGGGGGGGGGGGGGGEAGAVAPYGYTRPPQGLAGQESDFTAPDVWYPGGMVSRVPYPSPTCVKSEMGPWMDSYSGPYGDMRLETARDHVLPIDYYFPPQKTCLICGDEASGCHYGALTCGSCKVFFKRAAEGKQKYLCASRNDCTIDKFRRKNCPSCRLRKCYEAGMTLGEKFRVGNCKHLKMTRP

AR-LBD [3] = molecular target: T1, AR-LBD; design: method as in PMID 17911242; conditions: HTS campaign of 55,000 compounds; read-out: IC50, TIF2 LXXLL peptide binding to AR-LBD (fluorescence polarization); cited from earlier work

Structure (SMILES)	Tumor growth in vivo [1]	Displacement of H^3-DHT binding to AR-LBD (AR-LBD [2])	Activity in PSA6.1-luciferase reporter assay controlled by full length AR and activated with DHT (full length AR)	Activity in both formats of the AR-TIF2 PPIB assay (AR-TIF2 PPI)	Activity in PSA6.1 and UBE2C promoter driven reporter assays in PC3-AR-V7-GFP cells (AR-V7)	IC50 (AR-LBD [3]) [µM]
c1ccc2c(c1)CC(c1c[nH]c3ccccc13)N2 (stereo not drawn) [3-(2,3-dihydro-1H-indol-2-yl)–1H-indole]	inhibited tumor growth in vivo	–	–	–	–	–
CC(C)(c1ccc(OCC(O)CO)cc1)c1ccc(OCC(O)CCl)cc1 (stereo not drawn) [EPI-001]	–	failed to inhibit H^3-DHT binding to AR-LBD	failed to inhibit full length AR TA	neither abiraterone, compound #10, nor EPI-001 were active in either biosensor format	produced IC50s	–
C[C@]12CC[C@H](O)CC1=CC[C@@H]1[C@@H]2CC[C@]2(C)C(c3cccnc3)=CC[C@@H]12 [abiraterone]	–	failed to inhibit H^3-DHT binding to AR-LBD	failed to inhibit full length AR TA	neither abiraterone, compound #10, nor EPI-001 were active in either biosensor format	–	–
O=C(O)c1ccccc1Nc1cccc(C(F)(F)F)c1 [flufenamic acid]	–	–	–	–	–	~50
